Test results from the supplement of paper PMC6045584.
± gives the standard deviation of the averaged measurements.

Columns and labels:
[1] = compound: COc1cc2c(Oc3ccc(NC(=O)C4(C(=O)Nc5ccc(F)cc5)CC4)cc3F)ccnc2cc1OCCCN1CCOCC1 [FORETINIB]; assay: surviving fraction relative to DMSO-only wells; higher = less growth inhibition; details: exposure time: 5 days
Method in brief: (§1)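 Luminescence normalised to the median of DMSO-only wells defines surviving fraction, with viability read by CellTiter-Glo. Signal was recorded after 10 minutes at room temperature, once log-phase tumour cell lines seeded at 250–500 cells per well in 384-well plates had spent 24 hours settling and then five days under continuous exposure to inhibitors at 0.5, 1, 5, 10, 50, 100, 500 and 1000 nM.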

[2] = compound: C[C@@H](Oc1cc(-c2cnn(C3CCNCC3)c2)cnc1N)c1c(Cl)ccc(F)c1Cl [CRIZOTINIB]; assay: as above; details: exposure time: 5 days
Method in brief: as §1

Test System	surviving fraction ([1]; 0.5 nM)	surviving fraction ([1]; 1 nM)	surviving fraction ([1]; 5 nM)	surviving fraction ([1]; 10 nM)	surviving fraction ([1]; 50 nM)	surviving fraction ([1]; 100 nM)	surviving fraction ([1]; 500 nM)	surviving fraction ([1]; 1000 nM)	surviving fraction ([2]; 0.5 nM)	surviving fraction ([2]; 1 nM)	surviving fraction ([2]; 5 nM)	surviving fraction ([2]; 10 nM)	surviving fraction ([2]; 50 nM)	surviving fraction ([2]; 100 nM)	surviving fraction ([2]; 1000 nM)	surviving fraction ([2]; 500 nM)
MDAMB436 BREAST	0.976 ± 0.091	0.923 ± 0.086	0.982 ± 0.043	1.05 ± 0.14	1.02 ± 0.043	0.91 ± 0.2	0.856 ± 0.16	0.687 ± 0.047	1.01 ± 0.032	0.97 ± 0.11	1.02 ± 0.086	1.03 ± 0.13	0.965 ± 0.11	1.07 ± 0.022	0.916 ± 0.1	
MDAMB453 BREAST	1.1 ± 0.067	1.09 ± 0.062	1.12 ± 0.058	1.13 ± 0.087	1.12 ± 0.025	1.08 ± 0.04	0.952 ± 0.041	0.763 ± 0.035	1.1 ± 0.049	1.06 ± 0.064	1.17 ± 0.079	1.14 ± 0.12		1.11 ± 0.039	0.803 ± 0.043	0.844 ± 0.042
MDAMB468 BREAST	1.02 ± 0.03	1.05 ± 0.059	1.12 ± 0.077	1.09 ± 0.03	1.15 ± 0.086	1.06 ± 0.076	0.928 ± 0.082	0.356 ± 0.014	1.08 ± 0.018	1.12 ± 0.072	1.11 ± 0.023	1.1 ± 0.094	1.16 ± 0.029	1.06 ± 0.015	0.276 ± 0.007	0.666 ± 0.039
MFM223 BREAST	1.17 ± 0.043	1.09 ± 0.041	1.18 ± 0.062	1.22 ± 0.034	1.133 ± 0.011	0.94 ± 0.023	0.417 ± 0.17	0.271 ± 0.13	1.21 ± 0.058	1.2 ± 0.019	1.21 ± 0.058	1.11 ± 0.033	1.07 ± 0.058		1.084 ± 0.0027	1.07 ± 0.011
MG63 BONE	1.05 ± 0.012	1.07 ± 0.048	1.09 ± 0.043	1.11 ± 0.05	0.901 ± 0.037	0.817 ± 0.026	0.567 ± 0.015	0.322 ± 0.02	1.05 ± 0.04	1.07 ± 0.053		1.11 ± 0.043	1.07 ± 0.051	1 ± 0.052	0.743 ± 0.031	0.827 ± 0.034
MHM BONE	1.04 ± 0.015	1.01 ± 0.012	1.05 ± 0.015	1.08 ± 0.026	1.03 ± 0.017	0.973 ± 0.0092	0.859 ± 0.026	0.8 ± 0.016	1.03 ± 0.037	1.02 ± 0.034	1.09 ± 0.053	1.1 ± 0.047	1.07 ± 0.02	1.05 ± 0.021	0.884 ± 0.031	0.96 ± 0.011
NCIH441 LUNG	1.11 ± 0.021	1.09 ± 0.063	1.1 ± 0.038	1 ± 0.079	0.983 ± 0.026	0.932 ± 0.065	0.807 ± 0.04	0.655 ± 0.066	1.23 ± 0.069	1.2 ± 0.067	1.09 ± 0.038	1.12 ± 0.043	1.04 ± 0.045	0.967 ± 0.089	0.83 ± 0.16	1.02 ± 0.058
NOS1 BONE	1.12 ± 0.43	1.04 ± 0.052	1 ± 0.063	0.98 ± 0.099	0.79 ± 0.058	0.749 ± 0.028	0.28 ± 0.039	0.114 ± 0.0078	1.03 ± 0.12	1.13 ± 0.07	1.11 ± 0.044	1.23 ± 0.2	1.11 ± 0.043	1.69 ± 0.86	0.484 ± 0.051	0.69 ± 0.036
NY BONE	1.05 ± 0.035	1.03 ± 0.034	1.07 ± 0.033	1.016 ± 0.0061	0.91 ± 0.019	0.93 ± 0.045	0.558 ± 0.047	0.587 ± 0.031	1.07 ± 0.052	1.06 ± 0.047	1.12 ± 0.041	1.09 ± 0.038	1.08 ± 0.035	1.02 ± 0.021	0.577 ± 0.018	0.883 ± 0.026
OS25HAL BONE	1.01 ± 0.045	1.04 ± 0.032	1.08 ± 0.0095	1 ± 0.018	0.924 ± 0.023	0.951 ± 0.031	0.375 ± 0.038	0.193 ± 0.0084	1.06 ± 0.031	1.01 ± 0.028					0.326 ± 0.016	0.929 ± 0.098
OSHN BONE	1.08 ± 0.05	1.07 ± 0.031	1.08 ± 0.018	1.05 ± 0.041	1.03 ± 0.035	1.01 ± 0.039	0.735 ± 0.057	0.0927 ± 0.013	1.11 ± 0.026	1.12 ± 0.035	1.12 ± 0.032	1.14 ± 0.027	1.12 ± 0.081	1.14 ± 0.044	0.677 ± 0.067	1.08 ± 0.048
PCI30 HEADNECK	1.07 ± 0.09	1.1 ± 0.043	1.1 ± 0.019	1.11 ± 0.045	1.04 ± 0.028	1.04 ± 0.072	0.806 ± 0.056	0.484 ± 0.0076	1.07 ± 0.075	1.12 ± 0.058	1.02 ± 0.028	1.1 ± 0.072	1.03 ± 0.024		0.6787 ± 0.0025	0.759 ± 0.055
RDES SOFT TISSUE	1.31 ± 0.058	1.25 ± 0.13	1.17 ± 0.088	1.07 ± 0.065	0.989 ± 0.12	0.892 ± 0.092	0.226 ± 0.013	0.106 ± 0.0059		1.24 ± 0.083		1.15 ± 0.11		1.16 ± 0.1	0.194 ± 0.047	1.44 ± 0.12
S68 BREAST	0.862 ± 0.072	0.875 ± 0.33	1.35 ± 0.14	0.916 ± 0.15	1.05 ± 0.082	0.78 ± 0.059	0.313 ± 0.025	0.331 ± 0.077	0.895 ± 0.078	1.16 ± 0.3	1.04 ± 0.55	0.981 ± 0.1	1.17 ± 0.26		0.361 ± 0.049	0.417 ± 0.11
SAOS2 BONE	1.17 ± 0.045	1.12 ± 0.072	1.12 ± 0.048	1.17 ± 0.069	1.15 ± 0.15	1.08 ± 0.15	0.611 ± 0.082	0.162 ± 0.03	1.14 ± 0.063	1.12 ± 0.023	1.2 ± 0.044	1.23 ± 0.068	1.34 ± 0.14	1.19 ± 0.1	0.1927 ± 0.00058	0.541 ± 0.046
SCC003 HEADNECK	1.09 ± 0.068	1.14 ± 0.033	1.12 ± 0.074	1.11 ± 0.038	1.04 ± 0.066	1.06 ± 0.088	0.912 ± 0.046	0.485 ± 0.0087	1.07 ± 0.043		1.08 ± 0.13	1.06 ± 0.064	1.06 ± 0.045	1.09 ± 0.058	0.793 ± 0.044	0.929 ± 0.1
SCC36 HEADNECK	1.06 ± 0.11	1.11 ± 0.13	1.17 ± 0.02	1.13 ± 0.047	1.115 ± 0.0078	1.08 ± 0.061	0.742 ± 0.084	0.41 ± 0.035	1.05 ± 0.11	1.06 ± 0.026	1.2 ± 0.088	1.24 ± 0.1	1.13 ± 0.17	1.07 ± 0.22	0.301 ± 0.025	0.552 ± 0.072
SCC47 HEADNECK	1.17 ± 0.042	1.2 ± 0.09	1.18 ± 0.029	1.19 ± 0.06	1.12 ± 0.014	1.02 ± 0.035	0.97 ± 0.047	0.51 ± 0.024	1.11 ± 0.056	1.08 ± 0.068	1.13 ± 0.048	1.16 ± 0.034	1.18 ± 0.018	1.15 ± 0.11		
SCC90 HEADNECK	1.08 ± 0.073	1.02 ± 0.045	1.1 ± 0.19	1.08 ± 0.071	1.23 ± 0.061	1.12 ± 0.12	0.753 ± 0.077	0.753 ± 0.25	1.06 ± 0.036	0.972 ± 0.058	1.04 ± 0.087	1.1 ± 0.067	1.08 ± 0.0074	1.12 ± 0.066	0.762 ± 0.085	0.9977 ± 0.0097
SG27 HEADNECK	0.986 ± 0.14	1.12 ± 0.063	1.07 ± 0.11	1.11 ± 0.14	0.962 ± 0.12	1.02 ± 0.075	0.901 ± 0.11	0.829 ± 0.078	1.25 ± 0.084	1.09 ± 0.11		1.14 ± 0.022	1.12 ± 0.17	1.11 ± 0.091		1.18 ± 0.13
SG28 HEADNECK	1.04 ± 0.07	1.15 ± 0.12	1.12 ± 0.077	0.972 ± 0.011	1.02 ± 0.054	0.941 ± 0.054	0.826 ± 0.023	0.512 ± 0.046	1.06 ± 0.052	1.18 ± 0.1		1.22 ± 0.055	1.08 ± 0.025	1.15 ± 0.12		1.044 ± 0.0092
SG31 HEADNECK	1.38 ± 0.16	1.41 ± 0.11	1.1 ± 0.18	1.09 ± 0.21	0.969 ± 0.14	1.12 ± 0.11	1.02 ± 0.17	0.898 ± 0.087		1.2 ± 0.13	1.01 ± 0.12	1.22 ± 0.24	1.17 ± 0.26	1.19 ± 0.18	0.6 ± 0.058	0.856 ± 0.073
